# Assay results: patent publication US20090317364A1, “NOVEL COMPOSITIONS FOR PREVENTION AND TREATMENT OF MASTITIS AND METRITIS” (priority 2006, published 2009)
# Legend:
# [1] = test system: Staphylococcus. aureus; experiment: Lab trials 2b (in vitro) for synergy, components added on top of the culture; type: cell-based
# Excerpt: b) Lab trials 2b (in vitro) for synergy.
# [2] = test system: Staphylococcus. aureus; experiment: Lab trials 2a (in vitro) for synergy, components added in wells for diffusion; type: cell-based
# Excerpt: a) Lab trials 2a (in vitro) for synergy.
substance,measurement,setting,value
Peptidoglycan N-acetylmuramoylhydrolase [Lysozyme],Inhibition zone In diameter cm for Staphylococcus. aureus,[1],1.1 cm
same,Inhibition zone diameter In cm for Staphylococcus. aureus,[2],1.15 cm
